pIC50: −log10 of the molar value. Structures can show the parent of a compound that is named as a salt.
Legend:
RBP4 [1] = target: T1, RBP4 (Homo sapiens (Human), UniProt P02753); experiment: Scintillation proximity (SPA) RBP4 binding assay; conditions: 10 nM 3H-Retinol, 50 nM biotinylated RBP4
In short: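 Biotinylated urinary human RBP4 (50 nM) on streptavidin-PVT SPA beads with 10 nM ³H-retinol and test compound, in PBS pH 7.4, 1 mM EDTA, 0.1% BSA, 0.5% CHAPS. Nonspecific binding with 20 μM unlabeled retinol. Equilibrated 6 h at room temperature then overnight at 4° C under dim light.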

serum RBP4 = serum RBP4 (Mus musculus (Mouse), UniProt Q00724); experiment: Serum RBP4 levels in Abca4−/− mice; format: in vivo; conditions: 25 mg/kg for 12 weeks, mice starting at 17 weeks old
Procedure: (§1) The effectiveness of the compounds listed in Table 1 are tested in wild-type and Abca4−/− mice. The Abca4−/− mouse model manifests accelerated accumulation of lipofuscin in the RPE and is considered a pre-clinical efficacy model for a drug reducing lipofuscin accumulation. Compounds are orally dosed for 3 weeks at 30 mg/kg. There is a reduction in the serum RBP4 level in treated animals. The levels of A2E/isoA2E and other bisretinoids are reduced in treated mice.
(§2) Abca4−/− mice have A2E levels in the ˜15-19 pmoles/eye range at 17 weeks old. Mice, starting at 17 weeks old, were treated with 25 mg/kg of Compound 81 for 12 weeks.

RBP4-TTR interaction [2] = target: T2, RBP4-TTR interaction (Homo sapiens (Human), UniProt P02753); experiment: TR-FRET (HTRF) assay for retinol-induced RBP4-TTR interaction; format: biochemical; conditions: in the presence of 1 μM retinol; read-out: HTRF assay for antagonists of RBP4-TTR interaction: IC50
In short: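 Bacterial MBP-RBP4 and Eu³⁺-cryptate-labeled untagged human TTR were incubated with titrated compound in the presence of 1 μM retinol, overnight at +4° C in the dark. Buffer: 10 mM Tris-HCl pH 7.5, 1 mM DTT, 0.05% NP-40, 0.05% Prionex, 6% glycerol, 400 mM KF. Signal is reported as Flu665/Flu620×10,000.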

Abca4−/− mice [3] = experiment: Bisretinoid accumulation in eyes of Abca4−/− mice; format: in vivo, mouse; conditions: 25 mg/kg for 12 weeks, mice starting at 17 weeks old, versus vehicle-treated controls
Procedure: as §1, §2

RBP4-TTR interaction [4] = target: T2, RBP4-TTR interaction; conditions: cited from earlier work
Abca4−/− mice [5] = conditions: cited from earlier work
[6] = system: retinal pigment epithelium cells; conditions: many cell types, including the retinal pigment epithelium cells; cited from earlier work
mice = conditions: cited from earlier work
RBP4 [7] = target: T1, RBP4; conditions: cited from earlier work
serum RBP4 and retinol = serum RBP4 and retinol (Rattus norvegicus (Rat), UniProt P04916); conditions: in vivo; cited from earlier work

SMILES	pIC50 (RBP4 [1])	serum RBP4 level (serum RBP4; present-tense paper example)	pIC50 (RBP4-TTR interaction [2])	also measured
O=C(c1n[nH]c2c1CNCC2)N1CCC(c2ccc(F)c(F)c2C(F)(F)F)CC1 [Compound 36, (4-(3,4-Difluoro-2-(trifluoromethyl)phenyl)piperidin-1-yl)(4,5,6,7-tetrahydro-1H-pyrazolo[4,3-c]pyridin-3-yl)methanone Trifluoroacetic Acid Salt]	7.96	significant serum RBP4 reduction	6.54	
CC(=O)N1CCc2c(C(=O)N3CCC(c4ccc(F)c(F)c4C(F)(F)F)CC3)n[nH]c2C1 [Compound 81, 1-(3-(4-(3,4-Difluoro-2-(trifluoromethyl)phenyl)piperidine-1-carbonyl)-4,5-dihydro-1H-pyrazolo[3,4-c]pyridin-6(7H)-yl)ethanone]				serum RBP4 level (serum RBP4): significant serum RBP4 reduction; reduction in bisretinoid content (Abca4−/− mice [3]): 53%
O=C(c1n[nH]c2c1CCNC2)N1CCC(c2ccc(F)c(F)c2C(F)(F)F)CC1 [Compound 34]	7.68	significant serum RBP4 reduction	7.27	
CC1=C(/C=C/C(C)=C/C=C/C(C)=C/C(=O)Nc2ccc(O)cc2)C(C)(C)CCC1 [fenretinide, N-(4-hydroxy-phenyl)retinamide]				RBP4-TTR interaction (RBP4-TTR interaction [4]): disrupt the RBP4-TTR interaction; A2E production (Abca4−/− mice [5]; Abca4−/− mice): reduced A2E production; ocular all-trans retinol uptake and visual cycle (Abca4−/− mice [5]; mouse, in vivo): inhibit ocular all-trans retinol uptake and slow down the visual cycle; induction of apoptosis [6]: extremely active inducer of apoptosis; formation of hemangiosarcomas (mice): stimulate formation of hemangiosarcomas; binding to RBP4 and displacement of all-trans retinol (RBP4 [7]): bind to RBP4, displace all-trans retinol from RBP4; serum RBP4 and retinol (serum RBP4 and retinol): reduce serum RBP4 and retinol
O=C(c1n[nH]c2c1CNCC2)N1CCC(c2cccc(F)c2Cl)CC1 [Compound 42, (4-(2-Chloro-3-fluorophenyl)piperidin-1-yl)(4,5,6,7-tetrahydro-1Hpyrazolo[4,3-c]pyridin-3-yl) methanone Hydrochloride]	6.37	significant serum RBP4 reduction	6.10	
O=C(c1n[nH]c2c1CCNC2)N1CCC(c2cccc(F)c2C(F)(F)F)CC1 [Compound 30, (4-(3-Fluoro-2-(trifluoromethyl)phenyl)piperidin-1-yl)(4,5,6,7-tetrahydro-1H-pyrazolo[3,4-c]pyridin-3-yl)methanone Hydrochloride]	7.88	significant serum RBP4 reduction	7.36	
O=C(c1n[nH]c2c1CCNC2)N1CCC(c2cccc(F)c2Cl)CC1 [Compound 40, (4-(2-Chloro-3-fluorophenyl)piperidin-1-yl)(4,5,6,7-tetrahydro-1Hpyrazolo[3,4-c]pyridin-3-yl)methanone Hydrochloride]	7.85	significant serum RBP4 reduction	7.07	

— patent publication US9434727B2, “Substituted 4-phenylpiperidines, their preparation and use” (THE TRUSTEES OF COLUMBIA UNIVERSITY IN THE CITY OF NEW YORK, priority 2014, dated 2016)
